Reference: PMC7311950, “Potent Tetrahydroquinolone Eliminates Apicomplexan Parasites” (Frontiers in Cellular and Infection Microbiology, 2020)

Biological target: T1, P. falciparum bc1 complex cytochrome c reductase (Pfbc1) (Plasmodium falciparum, UniProt Q02768)
T1 construct: Parasite extract was then prepared by disruption with a sonicating probe; endogenous in cells; host or cells: P. falciparum strain 3D7 blood-stage culture, sonicated parasite extract
T1 sequence (Q02768 1-376): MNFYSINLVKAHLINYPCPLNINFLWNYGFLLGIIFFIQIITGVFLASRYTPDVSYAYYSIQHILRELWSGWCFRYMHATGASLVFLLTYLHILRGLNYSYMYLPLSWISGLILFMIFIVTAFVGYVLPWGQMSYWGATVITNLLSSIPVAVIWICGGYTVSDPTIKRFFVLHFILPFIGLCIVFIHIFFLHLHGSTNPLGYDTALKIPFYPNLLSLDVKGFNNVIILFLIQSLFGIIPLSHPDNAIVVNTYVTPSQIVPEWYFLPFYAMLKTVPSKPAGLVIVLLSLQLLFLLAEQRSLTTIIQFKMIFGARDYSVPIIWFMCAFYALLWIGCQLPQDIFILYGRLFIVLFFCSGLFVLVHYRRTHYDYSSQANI
Assay: Pfbc1 native assay (cytochrome c reduction by parasite extract)
Assay type: biochemical
Conditions: atovaquone 1 μM positive control, X ± S.D., N = 4
Method: P. falciparum 3D7 strain were obtained from the Liverpool School of Tropical Medicine. Protease cocktail inhibitor was obtained from Roche. Bradford protein assay dye reagent was obtained from Bio-Rad. All other reagents were obtained from Sigma-Aldrich. Decylubiquinol was produced as per Fisher et al. ([2009]). In brief, 25 mg of decylubiquinone were dissolved in 400 μL of nitrogen-saturated hexane. An equal volume of aqueous 1 M sodium dithionite was added, and the mixture vortexed until colorless. The organic phase containing the decylubiquinol was collected, the solvent was evaporated under N2 and the decylubiquinol finally dissolved in 100 μL of 96% ethanol (acidified with 10 mM HCl). Concentrations of decylubiquinol was determined spectrophotometrically on a Cary 300 Bio UV/visible spectrophotometer (Varian, UK) from absolute spectra, using ε288−−320 = 8.1 mM^−1.cm^−1. Decylubiquinol was stored at −80°C and used within 2 weeks. […]
The protocol for the preparation of parasite extract was adapted from Fisher et al. ([2009]). […] The protein concentration of the parasite extract was determined by Bradford protein assay (Bio-Rad).
P. falciparum bc1 complex cytochrome c reductase (Pfbc1) activity was measured by monitoring cytochrome c reduction at 550 vs. 542 nm using a Cary 300 Bio UV-Visible Spectrophotometer (Varian, UK), using a protocol adapted from Fisher et al. ([2009]). […]

How did the inhibition at 1 µM turn out when Cc1[nH]c2c(c(=O)c1-c1ccc(Oc3ccc(OC(F)(F)F)cc3)cc1)CCCC2 [JAG21, 2-Methyl-3-(4-(4-(Trifluoromethoxy)Phenoxy)Phenyl)-5,6,7,8-Tetrahydroquinolin-4-One] was run?
Its inhibition at 1 µM is 86.4 ± 3.2%.
